Source: the NIST ThermoML archive (doi:10.1016/j.tca.2014.02.019)
Numbers after ± are expanded uncertainties.

Experiment: xn = mol fraction of the nth substance listed
Details: 101 kPa, Liquid; for viscosity: Falling or rolling sphere viscometry; for mass density: Vibrating tube method

## CCOS(=O)(=O)[O-].CC[N+]1(C)CCOCC1 [4-ethyl-4-methylmorpholinium ethyl sulfate] + O
323.15 K, x1 = 0.2214
  viscosity: 8.814 ± 1.4 mPa·s
  mass density: 1180.48 ± 0.31 kg/m3
323.15 K, x1 = 0.3165
  viscosity: 16.96 ± 2.7 mPa·s
  mass density: 1199.19 ± 0.42 kg/m3
323.15 K, x1 = 0.4406
  viscosity: 37.3 ± 6 mPa·s
  mass density: 1213.31 ± 0.67 kg/m3
323.15 K, x1 = 0.6319
  viscosity: 130.6 ± 21 mPa·s
  mass density: 1224.95 ± 1.2 kg/m3
323.15 K, x1 = 0.7239
  viscosity: 180.6 ± 30 mPa·s
  mass density: 1228.72 ± 1.6 kg/m3
323.15 K, x1 = 0.807
  viscosity: 379.7 ± 65 mPa·s
  mass density: 1231.45 ± 2 kg/m3
323.15 K, x1 = 1
  viscosity: 1129 ± 210 mPa·s
  mass density: 1236.35 ± 3 kg/m3
323.15 K, x1 = 0.1255
  mass density: 1144.26 ± 0.3 kg/m3
328.15 K, x1 = 0.1255
  viscosity: 2.845 ± 0.46 mPa·s
  mass density: 1140.96 ± 0.3 kg/m3
328.15 K, x1 = 0.2214
  viscosity: 7.649 ± 1.2 mPa·s
  mass density: 1177.17 ± 0.31 kg/m3
328.15 K, x1 = 0.3165
  viscosity: 14.47 ± 2.3 mPa·s
  mass density: 1195.92 ± 0.42 kg/m3
328.15 K, x1 = 0.4406
  viscosity: 30.77 ± 4.9 mPa·s
  mass density: 1210.11 ± 0.67 kg/m3
328.15 K, x1 = 0.6319
  viscosity: 101.7 ± 16 mPa·s
  mass density: 1221.84 ± 1.2 kg/m3
328.15 K, x1 = 0.7239
  viscosity: 138.4 ± 23 mPa·s
  mass density: 1225.53 ± 1.6 kg/m3
328.15 K, x1 = 0.807
  viscosity: 280.6 ± 47 mPa·s
  mass density: 1228.26 ± 1.9 kg/m3
328.15 K, x1 = 1
  viscosity: 779.3 ± 140 mPa·s
  mass density: 1233.2 ± 2.9 kg/m3
333.15 K, x1 = 0.1255
  viscosity: 2.896 ± 0.46 mPa·s
  mass density: 1137.63 ± 0.3 kg/m3
333.15 K, x1 = 0.2214
  viscosity: 6.732 ± 1.1 mPa·s
  mass density: 1173.83 ± 0.31 kg/m3
333.15 K, x1 = 0.3165
  viscosity: 12.44 ± 2 mPa·s
  mass density: 1192.63 ± 0.42 kg/m3
333.15 K, x1 = 0.4406
  viscosity: 25.72 ± 4.1 mPa·s
  mass density: 1206.91 ± 0.66 kg/m3
333.15 K, x1 = 0.6319
  viscosity: 80.93 ± 13 mPa·s
  mass density: 1218.72 ± 1.2 kg/m3
333.15 K, x1 = 0.7239
  viscosity: 108.1 ± 18 mPa·s
  mass density: 1222.36 ± 1.6 kg/m3
333.15 K, x1 = 0.807
  viscosity: 211.6 ± 35 mPa·s
  mass density: 1225.07 ± 1.9 kg/m3
333.15 K, x1 = 1
  viscosity: 552.3 ± 98 mPa·s
  mass density: 1230.06 ± 2.9 kg/m3
338.15 K, x1 = 0.1255
  viscosity: 2.626 ± 0.42 mPa·s
  mass density: 1134.26 ± 0.3 kg/m3
338.15 K, x1 = 0.2214
  viscosity: 5.925 ± 0.95 mPa·s
  mass density: 1170.4 ± 0.31 kg/m3
338.15 K, x1 = 0.3165
  viscosity: 10.79 ± 1.7 mPa·s
  mass density: 1189.38 ± 0.41 kg/m3
338.15 K, x1 = 0.4406
  viscosity: 21.68 ± 3.5 mPa·s
  mass density: 1203.71 ± 0.66 kg/m3
338.15 K, x1 = 0.6319
  viscosity: 65 ± 10 mPa·s
  mass density: 1215.6 ± 1.2 kg/m3
338.15 K, x1 = 0.7239
  viscosity: 85.65 ± 14 mPa·s
  mass density: 1219.28 ± 1.6 kg/m3
338.15 K, x1 = 0.807
  viscosity: 162.7 ± 27 mPa·s
  mass density: 1221.94 ± 1.9 kg/m3
338.15 K, x1 = 1
  viscosity: 400.8 ± 69 mPa·s
  mass density: 1226.93 ± 2.9 kg/m3
343.15 K, x1 = 0.1255
  viscosity: 2.124 ± 0.34 mPa·s
  mass density: 1130.86 ± 0.32 kg/m3
343.15 K, x1 = 0.2214
  viscosity: 5.3 ± 0.85 mPa·s
  mass density: 1167.12 ± 0.31 kg/m3
343.15 K, x1 = 0.3165
  viscosity: 9.457 ± 1.5 mPa·s
  mass density: 1186.1 ± 0.41 kg/m3
343.15 K, x1 = 0.4406
  viscosity: 18.46 ± 3 mPa·s
  mass density: 1200.5 ± 0.65 kg/m3
343.15 K, x1 = 0.6319
  viscosity: 53 ± 8.5 mPa·s
  mass density: 1212.48 ± 1.2 kg/m3
343.15 K, x1 = 0.7239
  viscosity: 68.72 ± 11 mPa·s
  mass density: 1216.18 ± 1.6 kg/m3
343.15 K, x1 = 0.807
  viscosity: 126.8 ± 21 mPa·s
  mass density: 1218.8 ± 1.9 kg/m3
343.15 K, x1 = 1
  viscosity: 297.3 ± 50 mPa·s
  mass density: 1223.81 ± 2.9 kg/m3
